In article PMC5007466, “VCP recruitment to mitochondria causes mitophagy impairment and neurodegeneration in models of Huntington's disease” (Nature Communications, 2016):

Legend:
R6/2 mice = test: Body weight and survival, R6/2; format: in vivo, mouse; details: R6/2, 5–13 weeks of age, 3 mg kg^−1 per day, n=15
Experimental: Male hemizygous R6/2 mice (Tg) and their age-matched wt littermates (5-week-old) were implanted with a 28-day osmotic pump (Alzet, Cupertino CA) containing TAT control peptide or HV-3 peptide, which delivered peptides to the mice at a rate of 3 mg kg^−1 per day. The first pump was implanted subcutaneously in the back of 5-week-old mice between the shoulders and replaced once, after 4 weeks.
The body weight and survival rate of HD mice and wt littermates were recorded throughout the study period.

[1] = test system: HdhQ111 / HdhQ7 mouse striatal cells; test: Mitochondrial membrane potential (TMRM), mouse striatal cells; format: cell-based
Experimental: (§1) Immortalized striatal cell lines HdhQ111 mutant and HdhQ7 wt cells were obtained from the CHDI Foundation. Cells were cultured in DMEM supplemented with 10% FBS, 100 μg/ml penicillin, 100 μg ml^−1 streptomycin, and 400 μg ml^−1 G418. Cells were grown at 33 °C in a 5% CO2 incubator. Cells within 14 passages were used in all experiments.
(§2) For silencing Htt and VCP in HD striatal cells, control siRNA, mouse Htt and mouse VCP siRNA were purchased from Thermo Fisher Scientific. HdhQ7 and HdhQ111 cells were transfected either with control siRNA, or Htt or VCP siRNA using TransIT-TKO Transfection Reagent (Mirus Bio, LLC), according to the manufacturer's instructions. The sequences for the siRNAs used in this study are as follows: mouse Htt, 5′-[…]-3′; Mouse VCP, 5′-GAGAGCAACCUUCGUAAG-3′; control non-targeting siRNA, 5′-TTCTCCGAACGTGTCACGT-3′.
To determine mitochondrial mass in cultures, cells were stained with antibodies against Tom20 or stained with Mitotracker green. The fluorescent density of Tom20 (1:500) or mitotracker green was quantitated using NIH Image J software. To measure the membrane potential of mitochondria in cultures, cells were incubated with 0.25 μM tetra-methyl rhodamine (Invitrogen Life Science) for 20 min at 37 °C. To determine lysosomal activity, cells were incubated with Lyso-ID Red dye (Enzo Life Science) for 30 min at 37 °C. The images were visualized by microscope and quantitation of the density of red fluorescence was carried out using NIH ImageJ software. For immunocytochemistry study, at least 100 cells per group were counted and quantitated by an observer blind to experimental conditions.

[2] = test system: HdhQ111 / HdhQ7 mouse striatal cells; test: VCP mitochondrial level, mouse striatal cells (western blot); format: cell-based
Experimental: as §1, §2
Cells were washed with cold PBS and incubated on ice for 30 min in a lysis buffer (250 mM sucrose, 20 mM HEPES-NaOH, pH 7.5, 10 mM KCl, 1.5 mM MgCl2, 1 mM EDTA, protease inhibitor cocktail and phosphatase inhibitor cocktail). Mouse brains were minced and homogenized in the lysis buffer and then placed on ice for 30 min. Collected cells or tissue were disrupted 20 times by repeated aspiration through a 25-gauge needle, followed by a 30-gauge needle. The homogenates were spun at 800 g for 10 min at 4 °C, and the resulting supernatants were spun at 10,000 g for 20 min at 4 °C. The pellets were washed with lysis buffer and spun at 10,000 g again for 20 min at 4 °C. The final pellets were suspended in lysis buffer containing 1% Triton X-100 and were mitochondrial-rich lysate fractions. The supernatant was centrifuged at 100,000 g, 4 °C, for 1 h, the pellets were suspended in lysis buffer containing 1% Triton X-100 as ER fractions. The final supernatant was cytosolic fractions. The mitochondrial proteins VDAC, the ER protein WFS1 and the cytosolic protein Enolase were used as loading controls for mitochondrial, ER and cytosolic fractions, respectively.
Protein concentrations were determined by Bradford assay. […]

[3] = test system: HD patient-iPS cell derived neurons; test: Neurite length of DARPP-32/Tuj1-positive medium spiny neurons; format: cell-based, human; details: DARPP-32/Tuj1-positive neurons, 1 μM per day for 5 days versus TAT
Experimental: iPS cells from a normal subject and a HD patient (carrying 41 CAG repeats) were differentiated into neurons using the protocol from our previous studies. Briefly, iPS cells were plated onto 6-well plates precoated with 2.5% Matrigel and allowed to reach 90% confluence in feeder-free medium. For the first 10 days, cells were treated with SB431542 (10 μM; Tocris Bioscience) and Noggin (100 ng/ml) in Neural Media (NM) containing Neurobasal and DMEM (1:1), B27 supplement minus vitamin A (50 × , Invitrogen), N2 supplement (100 × , Invitrogen), GlutaMax (Invitrogen, 100 × ), FGF2 ([…]) and EGF ([…]), 100 units per ml penicillin and 100 μg ml^−1 streptomycin). For the next 10 days, cells were treated with human recombinant Sonic hedgehog (SHH, 200 ng/ml), DKK1 (100 ng/ml) and BDNF (20 ng/ml) and 10 μM Y27632 (Sigma) in neuronal differentiation medium containing Neurobasal and DMEM (1:3), B27, N2, GlutaMax and PS. […]
In patient-iPS cell-derived neurons, to ensure the observation of mitochondria in the medium spiny neurons, the cells were stained with a mitochondrial marker (anti-TOM20, 1:500) and markers for medium spiny neurons (DARPP-32, 1:200, Epitomics). The quantitation of neurite length was conducted only in the neurons immunopositive for both DARPP-32 and Tuj1 (neuron-specific class III beta-tubulin, 1:5,000, Covance). At least 50 neurons/group were counted.

[4] = wt counterparts of the HD models

## CSCC[C@H](NC(=O)[C@@H](NC(=O)[C@H](CC(C)C)NC(=O)[C@@H](NC(=O)[C@H](Cc1c[nH]cn1)NC(=O)CCCCCNC(=O)[C@H](CCCNC(=N)N)NC(=O)[C@H](CCCNC(=N)N)NC(=O)[C@H](CCCNC(=N)N)NC(=O)[C@H](CCC(N)=O)NC(=O)[C@H](CCCNC(=N)N)NC(=O)[C@H](CCCNC(=N)N)NC(=O)[C@H](CCCCN)NC(=O)[C@H](CCCCN)NC(=O)[C@H](CCCNC(=N)N)NC(=O)CNC(=O)[C@@H](N)Cc1ccc(O)cc1)C(C)C)C(C)C)C(=O)N[C@@H](CS)C(=O)N[C@@H](C)C(=O)N[C@H](C(N)=O)[C@@H](C)O [HV-3]
R6/2 mice
  body weight: increased body weight
  survival rate: increased body weight and survival rate
[1]; HdhQ111 cells, HV-3 3 uM/day for 3 days versus TAT
  mitochondrial membrane potential: markedly improved the mitochondrial membrane potential
[1]; HdhQ111 cells, HV-3 + VCP siRNA
  mitochondrial membrane potential in presence of VCP siRNA: no additional protection on the MMP
[1]; [4]
  mitochondrial membrane potential, wt: only minor effects
[2]; HdhQ111 cells, HV-3 3 μM per day for 3 days versus TAT, n=3
  VCP translocation to mitochondria: abolished VCP translocation to the mitochondria
[2]; [4]
  VCP mitochondrial levels, wt: only minor effects
[3]
  neurite shortening: reduced neurite shortening
